According to US11840686B2, “Modulation of prekallikrein (PKK) expression” (Ionis Pharmaceuticals, Inc., priority 2013, dated 2023):
“And” between values parts separate entries of the source, which are not always exact repeats. Equal entries are not always repeated. Strand notation (5' to 3'): a small letter for the sugar, then the base; units joined by * are phosphorothioate-linked, units joined directly phosphodiester-linked; [ ] holds rarer units or linkages, { } end groups; capitals alone tell only the bases. e = 2'-O-(2-methoxyethyl) (MOE); [5mC] = 5-methylcytosine; d = 2'-deoxy (DNA)

Key:
[1] = system: human PKK mRNA; assay: Dose-dependent antisense inhibition of human PKK in HepaRG cells, 0.19-5.00 uM (Example 5); assay type: cell-based
Outline: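 HepaRG cells (20,000/well) were electroporated with antisense oligonucleotide at 0.19, 0.56, 1.67 and 5.00 μM and treated for about 16 hours. PKK mRNA was quantified by qRT-PCR with primer probe set RTS3454, normalised to RIBOGREEN total RNA, and IC50 was derived per oligonucleotide.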

[2] = system: basal vascular permeability; assay: Dose-dependent effect on basal vascular permeability, Evans Blue OD600 (Example 14); assay type: in vivo, mouse; settings: for OD600 nm of Evans Blue dye, Colon / OD600 nm of Evans Blue dye, Ears / OD600 nm of Evans Blue dye, Feet: basal
Method: The effect of varying doses on ISIS 482584 on basal vascular permeability was evaluated.
Group 1 consisted of 8 mice and was treated with PBS administered subcutaneously twice a week for 3 weeks. No other treatment was administered to Group 1 which served as a control group to measure the basal levels of vascular permeability.
Group 2 consisted of 4 mice and was treated with PBS administered subcutaneously twice a week for 3 weeks. At the end of the treatment period, the mice were intraperitoneally administered 30 μg of HOE-140. Group 2 served as a positive control for inhibition of basal vascular permeability.
Groups 3, 4, 5, 6, 7, and 8 consisted of 8 mice each and were treated with 2.5 mg/kg, 5 mg/kg, 10 mg/kg, 20 mg/kg, 40 mg/kg, or 80 mg/kg (corresponding to 5 mg/kg, 10 mg/kg, 20 mg/kg, 40 mg/kg, 80 mg/kg, or 160 mg/kg per week), respectively of ISIS 482584 administered subcutaneously twice a week for 3 weeks. […] served as the experimental treatment groups for examining the effect of varying doses of ISIS 482584 on basal vascular permeability.
All the groups were then injected with 30 mg/kg of Evans Blue solution in the tail vein. The mice were sacrificed 30 min after the Evans Blue solution administration and colons, feet, and ears were harvested and examined for permeability defects. Blood samples were taken through cardiac puncture.
The harvested tissues from the feet, colon, and ears were placed in formamide solution overnight to leach out the Evans Blue dye. The formamide solution containing feet and ear tissue was heated to 55° C. and left overnight. Higher OD values are associated with higher levels of permeability.

[3] = system: basal and captopril-induced vascular permeability; assay: Evans Blue basal and captopril-induced vascular permeability in mice (Example 12); assay type: in vivo, mouse; settings: for OD600 nm of Evans Blue dye, Colon / OD600 nm of Evans Blue dye, Ears / OD600 nm of Evans Blue dye, Feet / OD600 nm of Evans Blue dye, Intestine: ISIS 482584 40 mg/kg sc twice a week 4 weeks, HOE-140 30 μg ip
Method: Basal permeability is the level of vascular permeability occurring in the tissues of naïve, untreated mice. The effect of ISIS 482584 in the prevention of vascular permeability, either basal or captopril-induced, was evaluated.
Group 1 consisted of 8 mice and was treated with PBS administered subcutaneously twice a week for 4 weeks. No other treatment was administered to Group 1 which served as a control group to measure the basal levels of vascular permeability.
Group 2 consisted of 8 mice and was treated with PBS administered subcutaneously twice a week for 4 weeks. At the end of the treatment period, the mice were intraperitoneally administered 20 μg of captopril. Group 2 served as the negative control group for captopril-induced vascular permeability.
Group 3 consisted of 8 mice and was treated with PBS administered subcutaneously twice a week for 4 weeks. At the end of the treatment period, the mice were intraperitoneally administered 30 μg of HOE-140. Group 3 served as a positive control for inhibition of basal vascular permeability.
Group 4 consisted of 8 mice and was treated with PBS administered subcutaneously twice a week for 4 weeks. At the end of the treatment period, the mice were intraperitoneally administered 20 μg of captopril. The mice were also intraperitoneally administered 30 μg of HOE-140. Group 4 served as a positive control for inhibition of captopril-induced vascular permeability.
(§1) Group 5 consisted of 8 mice and was treated with 40 mg/kg of ISIS 482584 administered subcutaneously twice a week for 4 weeks. Group 5 served as an experimental treatment group for examining the effect of ISIS 482584 on basal vascular permeability.
as §1, with “Group 6” for “Group 5”, “weeks. At the end of the treatment period, the mice were intraperitoneally administered 20 μg of captopril.” for “weeks.”, “on captopril-induced” for “on basal”
All the groups were then injected with 30 mg/kg of Evans Blue solution. The mice were sacrificed 30 min after the Evans Blue solution administration and colons, feet, ears, and intestines were harvested.
The harvested tissues from the feet, colon, intestine, and ears were placed separately in formamide solution overnight to leach out the Evans Blue dye. The formamide solution containing feet and ear tissue was heated to 55° C. and left overnight.

[4] = HepaRG cells, electroporation, approximately 16 hours, Table 35
[5] = HepaRG cells, electroporation, approximately 16 hours, Table 36
[6] = HepaRG cells, electroporation, approximately 16 hours, Table 37
[7] = HepaRG cells, electroporation, approximately 16 hours, Table 38
[8] = HepaRG cells, electroporation, approximately 16 hours, Table 39
[9] = HepaRG cells, electroporation, approximately 16 hours, Table 40
[10] = Table 34, HepaRG, electroporation, ~16 h

531231 (eT*eA*eT*e[5mC]*eA*d[5mC]*dT*dG*dT*dA*d[5mC]*dT*dA*dG*dT*eT*eT*e[5mC]*e[5mC]*eT) [compound 531231]
percent inhibition of PKK at 0.19 μM [1, 4]: 25%
percent inhibition of PKK at 0.19 μM [1, 5]: 58%
percent inhibition of PKK at 0.19 μM [1, 6]: 34%
percent inhibition of PKK at 0.19 μM [1, 7]: 21%
percent inhibition of PKK at 0.19 μM [1, 8]: 21%
percent inhibition of PKK at 0.19 μM [1, 9]: 6%
percent inhibition of PKK at 0.56 μM [1, 4]: 34%
percent inhibition of PKK at 0.56 μM [1, 5]: 64%
percent inhibition of PKK at 0.56 μM [1, 6]: 47%
percent inhibition of PKK at 0.56 μM [1, 7]: 45%
percent inhibition of PKK at 0.56 μM [1, 8]: 39%
percent inhibition of PKK at 0.56 μM [1, 9]: 38%
percent inhibition of PKK at 1.67 μM [1, 4]: 84%
percent inhibition of PKK at 1.67 μM [1, 5]: 77%
percent inhibition of PKK at 1.67 μM [1, 6]: 72%
percent inhibition of PKK at 1.67 μM [1, 7]: 67%
percent inhibition of PKK at 1.67 μM [1, 8]: 90%
percent inhibition of PKK at 1.67 μM [1, 9]: 74%
percent inhibition of PKK at 5.00 μM [1, 4]: 92%
percent inhibition of PKK at 5.00 μM [1, 5]: 98%
percent inhibition of PKK at 5.00 μM [1, 7]: 96%
percent inhibition of PKK at 5.00 μM [1, 8]: 97%
percent inhibition of PKK at 5.00 μM [1, 9]: 95%
percent inhibition of PKK at 5.00 μM ([1]; HepaRG cells, electroporation, approximately 16 hours, Table 41): 97%
percent inhibition of PKK at 0.19 0μM ([1]; 0.19 0μM, HepaRG cells, electroporation, approximately 16 hours, Table 41): 25%
percent inhibition of PKK at 0.56 0μM ([1]; 0.56 0μM, HepaRG cells, electroporation, approximately 16 hours, Table 41): 55%
percent inhibition of PKK at 1.67 1μM ([1]; 1.67 1μM, HepaRG cells, electroporation, approximately 16 hours, Table 41): 89%
IC50 ([1]; 4 point dose response, HepaRG cells, Table 35): 700 nM
IC50 ([1]; 4 point dose response, HepaRG cells, Table 37): 500 nM
IC50 ([1]; 4 point dose response, HepaRG cells, Table 38): 700 nM
IC50 ([1]; 4 point dose response, HepaRG cells, Table 39): 600 nM
IC50 ([1]; 4 point dose response, HepaRG cells, Table 40): 800 nM
IC50 ([1]; 4 point dose response, HepaRG cells, Table 41): 500 nM
percent inhibition of PKK mRNA, 0.19 μM ([1]; HepaRG cells, 0.19 μM antisense oligonucleotide): 7% and 6%
percent inhibition of PKK mRNA, 0.56 μM ([1]; HepaRG cells, 0.56 μM antisense oligonucleotide): 39% and 56%
percent inhibition of PKK mRNA, 1.67 μM ([1]; HepaRG cells, 1.67 μM antisense oligonucleotide): 56% and 68%
percent inhibition of PKK mRNA, 5.00 μM ([1]; HepaRG cells, 5.00 μM antisense oligonucleotide): 97%
IC50 ([1]; HepaRG cells, 0.19-5.00 μM): 1000 nM and 800 nM
percent inhibition of PKK at 0.19 μM [1, 10]: 32%
percent inhibition of PKK at 0.56 μM [1, 10]: 30%
percent inhibition of PKK at 1.67 μM [1, 10]: 73%
percent inhibition of PKK at 5.00 μM [1, 10]: 89%
IC50 ([1]; Table 34, PKK mRNA, HepaRG, electroporation, ~16 h): 500 nM

Tes Ges mCes Aes Aes Gds Tds mCds Tds mCds Tds Tds Gds Gds mCds Aes Aes Aes mCes Ae [ISIS 546254]
IC50 ([1]; 4 point dose response curve (0.19-5.0 μM), HepaRG cells, electroporation): 200 nM and 300 nM

ISIS 482584: 5-10-5 MOE gapmer targeting murine PKK, GGCATATTGGTTTTTGGAAT; SEQ ID NO: 2244 (antisense eG*eG*e[5mC]*eA*eT*dA*dT*dT*dG*dG*dT*dT*dT*dT*dT*eG*eG*eA*eA*eT)
basal vascular permeability ([2]; all doses (Groups 3-8), most of the tissues, vs PBS control): reduced basal vascular permeability
OD600 nm of Evans Blue dye, Colon ([2]; 5 mg/kg/week sc, 3 weeks): 0.32
OD600 nm of Evans Blue dye, Ears ([2]; 5 mg/kg/week sc, 3 weeks): 0.009
OD600 nm of Evans Blue dye, Feet ([2]; 5 mg/kg/week sc, 3 weeks): 0.11
OD600 nm of Evans Blue dye, Colon ([2]; 10 mg/kg/week sc, 3 weeks): 0.31
OD600 nm of Evans Blue dye, Ears ([2]; 10 mg/kg/week sc, 3 weeks): 0.015
OD600 nm of Evans Blue dye, Feet ([2]; 10 mg/kg/week sc, 3 weeks): 0.10
OD600 nm of Evans Blue dye, Colon ([2]; 20 mg/kg/week sc, 3 weeks): 0.26
OD600 nm of Evans Blue dye, Ears ([2]; 20 mg/kg/week sc, 3 weeks): 0.009
OD600 nm of Evans Blue dye, Feet ([2]; 20 mg/kg/week sc, 3 weeks): 0.11
OD600 nm of Evans Blue dye, Colon ([2]; 40 mg/kg/week sc, 3 weeks): 0.27
OD600 nm of Evans Blue dye, Ears ([2]; 40 mg/kg/week sc, 3 weeks): 0.011
OD600 nm of Evans Blue dye, Feet ([2]; 40 mg/kg/week sc, 3 weeks): 0.11
OD600 nm of Evans Blue dye, Colon ([2]; 80 mg/kg/week sc, 3 weeks): 0.24
OD600 nm of Evans Blue dye, Ears ([2]; 80 mg/kg/week sc, 3 weeks): 0.014
OD600 nm of Evans Blue dye, Feet ([2]; 80 mg/kg/week sc, 3 weeks): 0.09
OD600 nm of Evans Blue dye, Colon ([2]; 160 mg/kg/week sc, 3 weeks): 0.25
OD600 nm of Evans Blue dye, Ears ([2]; 160 mg/kg/week sc, 3 weeks): 0.019
OD600 nm of Evans Blue dye, Feet ([2]; 160 mg/kg/week sc, 3 weeks): 0.11
basal vascular permeability ([3]; 40 mg/kg s.c. twice a week for 4 weeks, Group 5 vs. Group 1): reduced basal vascular permeability
captopril-induced vascular permeability ([3]; 40 mg/kg s.c. twice a week for 4 weeks, Group 6 vs. Group 2): reduced captopril-induced vascular permeability in most tissues
OD600 nm of Evans Blue dye, Colon ([3]; basal (captopril No)): 0.19
OD600 nm of Evans Blue dye, Ears ([3]; basal (captopril No)): 0.04
OD600 nm of Evans Blue dye, Feet ([3]; basal (captopril No)): 0.07
OD600 nm of Evans Blue dye, Intestine ([3]; basal (captopril No)): 0.22
OD600 nm of Evans Blue dye, Colon ([3]; captopril Yes): 0.37
OD600 nm of Evans Blue dye, Ears ([3]; captopril Yes): 0.00
OD600 nm of Evans Blue dye, Feet ([3]; captopril Yes): 0.05
OD600 nm of Evans Blue dye, Intestine ([3]; captopril Yes): 0.22

NC(N)=NCCC[C@@H](N)C(=O)N[C@@H](CCCN=C(N)N)C(=O)N1CCC[C@H]1C(=O)N1C[C@H](O)C[C@H]1C(=O)NCC(=O)N[C@@H](Cc1cccs1)C(=O)N[C@@H](CO)C(=O)N1Cc2ccccc2C[C@@H]1C(=O)N1[C@H](C(=O)N[C@@H](CCCN=C(N)N)C(=O)O)C[C@@H]2CCCC[C@@H]21 [HOE-140, Icatibant, reference compound]
OD600 nm of Evans Blue dye, Colon ([2]; HOE-140 30 μg ip): 0.24
OD600 nm of Evans Blue dye, Ears ([2]; HOE-140 30 μg ip): 0.047
OD600 nm of Evans Blue dye, Feet ([2]; HOE-140 30 μg ip): 0.09
OD600 nm of Evans Blue dye, Colon ([3]; basal (captopril No)): 0.18
OD600 nm of Evans Blue dye, Ears ([3]; basal (captopril No)): 0.03
OD600 nm of Evans Blue dye, Feet ([3]; basal (captopril No)): 0.06
OD600 nm of Evans Blue dye, Intestine ([3]; basal (captopril No)): 0.21
OD600 nm of Evans Blue dye, Colon ([3]; captopril Yes): 0.29
OD600 nm of Evans Blue dye, Ears ([3]; captopril Yes): 0.00
OD600 nm of Evans Blue dye, Feet ([3]; captopril Yes): 0.03
OD600 nm of Evans Blue dye, Intestine ([3]; captopril Yes): 0.14
